Assay results from PubChem BioAssay (NCI).
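1) Cells in 96-well plates. 2) Compound, 48 h, 5 concentrations. 3) Linear interpolation between surrounding doses. 4) Unreached endpoint = highest concentration. Here, GI50 denotes the concentration required for 50% inhibition of growth. At the TGI there is no net growth.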

Legend:
Assay in all cases: inhibition of tumour cell growth, NCI panel, 48 h
[1] = tested on: HCT-116 colon
[2] = tested on: COLO 205 colon
[3] = tested on: OVCAR-8 ovarian
[4] = tested on: MDA-MB-435
[5] = tested on: OVCAR-5 ovarian
[6] = tested on: K-562 leukemia
[7] = tested on: HS 578T breast
[8] = tested on: SK-OV-3 ovarian
[9] = tested on: U251 CNS
[10] = tested on: HT29 colon
[11] = tested on: IGROV1 ovarian
[12] = tested on: TK-10 renal
[13] = tested on: MCF7 breast
[14] = tested on: NCI-H23 lung
[15] = tested on: NCI/ADR-RES ovarian
[16] = tested on: 786-0 renal
[17] = tested on: SF-295 CNS
[18] = tested on: MALME-3M melanoma
[19] = tested on: LOX IMVI melanoma
[20] = tested on: UACC-62 melanoma
[21] = tested on: UACC-257 melanoma
[22] = tested on: HOP-62 NSCLC
[23] = tested on: T-47D breast
[24] = tested on: CAKI-1 renal
[25] = tested on: SF-539 CNS
[26] = tested on: ACHN renal
[27] = tested on: PC-3 prostate
[28] = tested on: SF-268 CNS
[29] = tested on: M14 melanoma
[30] = tested on: SW-620 colon
[31] = tested on: NCI-H226 lung
[32] = tested on: MDA-MB-231 breast
[33] = tested on: SK-MEL-28 melanoma
[34] = tested on: CCRF-CEM leukemia
[35] = tested on: SR leukemia
[36] = tested on: SN12C renal
[37] = tested on: SNB-19 CNS
[38] = tested on: HOP-92 NSCLC
[39] = tested on: NCI-H460 lung
[40] = tested on: BT-549 breast
[41] = tested on: A498 renal
[42] = tested on: MOLT-4 leukemia
[43] = tested on: HCC-2998 colon
[44] = tested on: HL-60(TB) leukemia
[45] = tested on: EKVX NSCLC
[46] = tested on: UO-31 renal
[47] = tested on: KM12 colon
[48] = tested on: HCT-15 colon
[49] = tested on: SK-MEL-5 melanoma
[50] = tested on: RPMI-8226 leukemia
[51] = tested on: OVCAR-3 ovarian
[52] = tested on: RXF 393 renal
[53] = tested on: DU-145 prostate
[54] = tested on: OVCAR-4 ovarian
[55] = tested on: A549 NSCLC
[56] = tested on: NCI-H522 lung
[57] = tested on: SNB-75 CNS
[58] = tested on: SK-MEL-2 melanoma

O=C(Nc1cc(Cl)ccc1O)c1ccc(Nc2ccnc(C(F)(F)F)c2)cc1
GI50 [1]: 2.9 µM
TGI [1]: 60.8 µM
GI50 [2]: 1.86 µM
TGI [2]: 4.23 µM
GI50 [3]: 4.54 µM
TGI [3]: > 100 µM
GI50 [4]: 2.95 µM
TGI [4]: 9.53 µM
GI50 [5]: 3.61 µM
TGI [5]: > 100 µM
GI50 [6]: 2.89 µM
TGI [6]: > 100 µM
GI50 [7]: 3.75 µM
TGI [7]: > 100 µM
GI50 [8]: 2.32 µM
TGI [8]: 7.11 µM
GI50 [9]: 3.47 µM
TGI [9]: > 100 µM
GI50 [10]: 6.35 µM
TGI [10]: > 100 µM
GI50 [11]: 2.34 µM
TGI [11]: 8.19 µM
GI50 [12]: 2 µM
TGI [12]: 7.89 µM
GI50 [13]: 2.68 µM
TGI [13]: > 100 µM
GI50 [14]: 2.46 µM
TGI [14]: 7.81 µM
GI50 [15]: 2.93 µM
TGI [15]: > 100 µM
GI50 [16]: 3.61 µM
TGI [16]: > 100 µM
GI50 [17]: 2.2 µM
TGI [17]: 7.03 µM
GI50 [18]: 1.79 µM
TGI [18]: 5.49 µM
GI50 [19]: 3.09 µM
TGI [19]: 76.9 µM
GI50 [20]: 2.3 µM
TGI [20]: 15.5 µM
GI50 [21]: 3.53 µM
TGI [21]: > 100 µM
GI50 [22]: 3.23 µM
TGI [22]: 23.7 µM
GI50 [23]: 1.76 µM
TGI [23]: 6.39 µM
GI50 [24]: 2.02 µM
TGI [24]: 7.77 µM
GI50 [25]: 3.29 µM
TGI [25]: > 100 µM
GI50 [26]: 2.35 µM
TGI [26]: 7.42 µM
GI50 [27]: 2.72 µM
TGI [27]: 9.02 µM
GI50 [28]: 3.99 µM
TGI [28]: > 100 µM
GI50 [29]: 3.56 µM
TGI [29]: 54.1 µM
GI50 [30]: 3.73 µM
TGI [30]: > 100 µM
GI50 [31]: 2.02 µM
TGI [31]: 7.33 µM
GI50 [32]: 2.11 µM
TGI [32]: 6.35 µM
GI50 [33]: 4.6 µM
TGI [33]: > 100 µM
GI50 [34]: 0.807 µM
TGI [34]: 5.7 µM
GI50 [35]: 2.52 µM
TGI [35]: 9.84 µM
GI50 [36]: 2.65 µM
TGI [36]: 32 µM
GI50 [37]: 2.15 µM
TGI [37]: 7.78 µM
GI50 [38]: 2.24 µM
TGI [38]: 6.12 µM
GI50 [39]: 2.49 µM
TGI [39]: 6.91 µM
GI50 [40]: 2.21 µM
TGI [40]: 6.88 µM
GI50 [41]: 2.39 µM
TGI [41]: 7.17 µM
GI50 [42]: 1.75 µM
TGI [42]: 6.6 µM
GI50 [43]: 3.73 µM
TGI [43]: > 100 µM
GI50 [44]: 1.25 µM
TGI [44]: 4.42 µM
GI50 [45]: 2.84 µM
TGI [45]: 9.63 µM
GI50 [46]: 1.93 µM
TGI [46]: 6.13 µM
GI50 [47]: 3.19 µM
TGI [47]: 18.8 µM
GI50 [48]: 2.86 µM
TGI [48]: > 100 µM
GI50 [49]: 2.19 µM
TGI [49]: 4.95 µM
GI50 [50]: 1.25 µM
TGI [50]: 3.83 µM
GI50 [51]: 2.16 µM
TGI [51]: 5.58 µM
GI50 [52]: 5.71 µM
TGI [52]: > 100 µM
GI50 [53]: 3.25 µM
TGI [53]: > 100 µM
GI50 [54]: 3.56 µM
TGI [54]: > 100 µM
GI50 [55]: 3.97 µM
TGI [55]: > 100 µM

CCc1ccc2c(c1)C(=O)c1c-2n(CCCN=[N+]=[N-])c(=O)c2cc([N+](=O)[O-])ccc12
GI50 [1]: > 50 µM
TGI [1]: > 50 µM
GI50 [2]: > 50 µM
TGI [2]: > 50 µM
GI50 [3]: > 50 µM
TGI [3]: > 50 µM
GI50 [4]: > 50 µM
TGI [4]: > 50 µM
GI50 [5]: > 50 µM
TGI [5]: > 50 µM
GI50 [6]: > 50 µM
TGI [6]: > 50 µM
GI50 [7]: > 50 µM
TGI [7]: > 50 µM
GI50 [9]: > 50 µM
TGI [9]: > 50 µM
GI50 [56]: > 50 µM
TGI [56]: > 50 µM
GI50 [10]: > 50 µM
TGI [10]: > 50 µM
GI50 [11]: > 50 µM
TGI [11]: > 50 µM
GI50 [12]: > 50 µM
TGI [12]: > 50 µM
GI50 [13]: > 50 µM
TGI [13]: > 50 µM
GI50 [14]: > 50 µM
TGI [14]: > 50 µM
GI50 [15]: > 50 µM
TGI [15]: > 50 µM
GI50 [16]: > 50 µM
TGI [16]: > 50 µM
GI50 [17]: > 50 µM
TGI [17]: > 50 µM
GI50 [18]: > 50 µM
TGI [18]: > 50 µM
GI50 [57]: 25.5 µM
TGI [57]: > 50 µM
GI50 [19]: > 50 µM
TGI [19]: > 50 µM
GI50 [20]: > 50 µM
TGI [20]: > 50 µM
GI50 [21]: > 50 µM
TGI [21]: > 50 µM
GI50 [22]: > 50 µM
TGI [22]: > 50 µM
GI50 [23]: > 50 µM
TGI [23]: > 50 µM
GI50 [24]: > 50 µM
TGI [24]: > 50 µM
GI50 [25]: > 50 µM
TGI [25]: > 50 µM
GI50 [26]: > 50 µM
TGI [26]: > 50 µM
GI50 [27]: > 50 µM
TGI [27]: > 50 µM
GI50 [28]: > 50 µM
TGI [28]: > 50 µM
GI50 [29]: > 50 µM
TGI [29]: > 50 µM
GI50 [30]: > 50 µM
TGI [30]: > 50 µM
GI50 [31]: > 50 µM
TGI [31]: > 50 µM
GI50 [32]: > 50 µM
TGI [32]: > 50 µM
GI50 [33]: > 50 µM
TGI [33]: > 50 µM
GI50 [34]: > 50 µM
TGI [34]: > 50 µM
GI50 [35]: > 50 µM
TGI [35]: > 50 µM
GI50 [36]: > 50 µM
TGI [36]: > 50 µM
GI50 [37]: > 50 µM
TGI [37]: > 50 µM
GI50 [38]: > 50 µM
TGI [38]: > 50 µM
GI50 [39]: > 50 µM
TGI [39]: > 50 µM
GI50 [40]: > 50 µM
TGI [40]: > 50 µM
GI50 [41]: > 50 µM
TGI [41]: > 50 µM
GI50 [43]: > 50 µM
TGI [43]: > 50 µM
GI50 [44]: > 50 µM
TGI [44]: > 50 µM
GI50 [45]: > 50 µM
TGI [45]: > 50 µM
GI50 [46]: > 50 µM
TGI [46]: > 50 µM
GI50 [47]: > 50 µM
TGI [47]: > 50 µM
GI50 [48]: > 50 µM
TGI [48]: > 50 µM
GI50 [49]: > 50 µM
TGI [49]: > 50 µM
GI50 [50]: > 50 µM
TGI [50]: > 50 µM
GI50 [51]: > 50 µM
TGI [51]: > 50 µM
GI50 [52]: > 50 µM
TGI [52]: > 50 µM
GI50 [53]: > 50 µM
TGI [53]: > 50 µM
GI50 [54]: 49.6 µM
TGI [54]: > 50 µM
GI50 [58]: > 50 µM
TGI [58]: > 50 µM
GI50 [55]: > 50 µM
TGI [55]: > 50 µM
